This test deals with Hepatocyte growth factor receptor (Homo sapiens, UniProt P08581). Put plainly: Kinase Assay: The inhibitory effect of the compounds of the present invention on the activity of c-Met was confirmed as follows.Specifically, 250 μM G4Y1 peptide, which serves as a substrate for c-Met enzyme (2 ng/μL), and 50 μM ATP were subjected to an enzyme reaction in a reaction buffer (40 mM Tris-HCl (pH 7.5), 20 mM MgCl2, 0.1 mg/mL bovine serum albumin, and 50 μM DTT). The compounds prepared in Examples and comparative compounds were treated at various concentrations and reacted at room temperature for 1 hour, sequentially added with ADP-Glo™ Reagent and the Kinase detection reagent, and reacted at room temperature for 40 minutes and 30 minutes, respectively.
Sequence of Hepatocyte growth factor receptor (P08581 whole entry): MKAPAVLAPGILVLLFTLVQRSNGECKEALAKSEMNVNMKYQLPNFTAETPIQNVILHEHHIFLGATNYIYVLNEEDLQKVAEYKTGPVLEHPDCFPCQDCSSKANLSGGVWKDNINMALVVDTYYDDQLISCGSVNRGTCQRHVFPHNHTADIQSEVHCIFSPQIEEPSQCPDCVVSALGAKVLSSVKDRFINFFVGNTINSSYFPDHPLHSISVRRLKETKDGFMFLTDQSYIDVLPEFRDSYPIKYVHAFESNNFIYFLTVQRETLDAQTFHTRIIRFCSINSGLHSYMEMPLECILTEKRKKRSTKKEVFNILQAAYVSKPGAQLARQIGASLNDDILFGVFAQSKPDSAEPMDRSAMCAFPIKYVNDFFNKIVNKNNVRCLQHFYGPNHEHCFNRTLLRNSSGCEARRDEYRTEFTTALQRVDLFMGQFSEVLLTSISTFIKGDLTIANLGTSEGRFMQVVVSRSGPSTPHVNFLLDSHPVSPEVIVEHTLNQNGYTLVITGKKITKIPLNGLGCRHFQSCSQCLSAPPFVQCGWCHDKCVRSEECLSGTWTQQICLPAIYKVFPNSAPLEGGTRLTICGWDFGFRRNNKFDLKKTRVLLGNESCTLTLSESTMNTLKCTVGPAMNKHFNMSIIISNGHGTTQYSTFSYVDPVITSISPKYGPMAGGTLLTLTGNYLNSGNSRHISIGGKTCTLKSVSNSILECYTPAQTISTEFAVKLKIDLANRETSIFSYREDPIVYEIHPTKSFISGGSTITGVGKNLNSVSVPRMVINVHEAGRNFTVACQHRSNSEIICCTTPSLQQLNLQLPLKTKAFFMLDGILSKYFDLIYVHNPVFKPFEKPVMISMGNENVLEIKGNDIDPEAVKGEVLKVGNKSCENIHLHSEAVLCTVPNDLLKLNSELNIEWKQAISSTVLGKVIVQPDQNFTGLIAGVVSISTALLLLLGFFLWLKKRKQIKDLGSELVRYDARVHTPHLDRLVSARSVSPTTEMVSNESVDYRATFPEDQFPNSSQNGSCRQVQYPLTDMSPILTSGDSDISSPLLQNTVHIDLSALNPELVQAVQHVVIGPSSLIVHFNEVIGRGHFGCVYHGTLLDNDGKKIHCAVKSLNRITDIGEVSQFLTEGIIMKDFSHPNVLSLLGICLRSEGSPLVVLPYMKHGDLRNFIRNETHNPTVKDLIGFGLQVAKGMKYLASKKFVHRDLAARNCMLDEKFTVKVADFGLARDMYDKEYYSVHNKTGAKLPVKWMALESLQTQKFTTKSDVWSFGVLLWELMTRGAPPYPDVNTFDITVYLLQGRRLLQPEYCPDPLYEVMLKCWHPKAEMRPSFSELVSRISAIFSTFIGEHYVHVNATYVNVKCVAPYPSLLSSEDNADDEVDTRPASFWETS

`CN(C)Cc1ccc(F)c(-c2ccn3nccc(Oc4ccc(NC(=O)C5(C(=O)Nc6ccc(F)cc6)CC5)cc4F)c23)c1` came in with an IC50 of under 40 nM.
Under `N#CCc1cccc(-c2ccn3nccc(Oc4ccc(NC(=O)C5(C(=O)Nc6ccc(F)cc6)CC5)cc4F)c23)c1` stands under 40 nM; under `CNCc1cccc(-c2ccn3nccc(Oc4ccc(NC(=O)C5(C(=O)Nc6ccc(F)cc6)CC5)cc4F)c23)c1`, under 40 nM.
In the case of `CN(C)Cc1ccc(Cl)c(-c2ccn3nccc(Oc4ccc(NC(=O)C5(C(=O)Nc6ccc(F)cc6)CC5)cc4F)c23)c1`, the IC50 is under 40 nM.
Under `CN(C)Cc1cccc(-c2ccn3nccc(Oc4ccc(NC(=O)C5(C(=O)Nc6ccc(F)cc6)CC5)cc4F)c23)c1` stands under 40 nM; under `NCc1cccc(-c2ccn3nccc(Oc4ccc(NC(=O)C5(C(=O)Nc6ccc(F)cc6)CC5)cc4F)c23)c1`, under 40 nM.
For the molecule `N#Cc1cc(N)cc(-c2ccn3nccc(Oc4ccc(NC(=O)C5(C(=O)Nc6ccc(F)cc6)CC5)cc4F)c23)c1`, the IC50 was under 40 nM.
The molecule `CCNc1cccc(-c2ccn3nccc(Oc4ccc(NC(=O)C5(C(=O)Nc6ccc(F)cc6)CC5)cc4F)c23)c1` yielded an IC50 of under 40 nM.
For the molecule `CN(C)Cc1cc(F)cc(-c2ccn3nccc(Oc4ccc(NC(=O)C5(C(=O)Nc6ccc(F)cc6)CC5)cc4F)c23)c1`, the IC50 was under 40 nM.
Under `CCNCc1cccc(-c2ccn3nccc(Oc4ccc(NC(=O)C5(C(=O)Nc6ccc(F)cc6)CC5)cc4F)c23)c1` stands under 40 nM.
